Measurements as given in patent publication US11873298B2, “Compounds and uses thereof” (JANSSEN PHARMACEUTICA NV, priority 2017, dated 2024).

How the values were obtained:
SCD5 = biological target: T1, SCD5 (Homo sapiens, UniProt Q86SK9); experiment: Growth inhibition of humanized yeast strain expressing SCD5 as sole desaturase; type: cell-based; conditions: growth inhibition of humanized yeast strain expressing human SCD5
T1 construct: host or cells: S. cerevisiae ole1Δ strain (W303 pdr1Δ pdr3Δ background), plasmid pRS316 with TDH3 promoter and CYC1 terminator
T1 sequence (Q86SK9 1-330): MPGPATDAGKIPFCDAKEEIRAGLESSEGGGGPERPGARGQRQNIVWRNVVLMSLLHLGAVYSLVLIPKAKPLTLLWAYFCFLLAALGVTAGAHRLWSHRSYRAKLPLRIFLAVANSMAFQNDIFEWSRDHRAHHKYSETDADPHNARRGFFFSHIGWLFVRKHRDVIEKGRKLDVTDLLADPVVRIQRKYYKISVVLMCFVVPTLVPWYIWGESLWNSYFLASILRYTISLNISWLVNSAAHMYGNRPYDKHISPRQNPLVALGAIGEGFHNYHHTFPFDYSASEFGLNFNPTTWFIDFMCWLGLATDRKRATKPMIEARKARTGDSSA
Procedure, shortened: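 Measured by optical density at 600 nm, growth of desaturase-dependent yeast (OLE1 deleted; human SCD1, human SCD5 or yeast Ole1 supplied from plasmid) was scored after 24 h (Ole1) or 40 h (SCD1, SCD5) at 30° C. in galactose media lacking uracil with DMSO-delivered compound.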

SCD1 = biological target: T2, SCD1 (Homo sapiens, UniProt O00767); experiment: Growth inhibition of humanized yeast strain expressing SCD1 as sole desaturase; type: cell-based; conditions: growth inhibition of humanized yeast strain expressing human SCD1
T2 construct: host or cells: S. cerevisiae ole1Δ strain (W303 pdr1Δ pdr3Δ background), plasmid pRS316 with TDH3 promoter and CYC1 terminator
T2 sequence (O00767 1-359): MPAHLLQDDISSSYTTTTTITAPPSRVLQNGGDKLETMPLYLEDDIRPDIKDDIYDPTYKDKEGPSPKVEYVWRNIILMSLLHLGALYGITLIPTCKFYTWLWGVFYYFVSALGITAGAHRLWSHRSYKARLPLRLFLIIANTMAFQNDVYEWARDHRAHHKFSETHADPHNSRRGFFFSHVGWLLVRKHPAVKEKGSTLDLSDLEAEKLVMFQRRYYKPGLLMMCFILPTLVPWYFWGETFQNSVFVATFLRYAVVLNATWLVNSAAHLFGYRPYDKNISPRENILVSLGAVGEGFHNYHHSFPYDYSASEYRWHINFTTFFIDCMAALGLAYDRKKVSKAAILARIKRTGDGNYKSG
Experimental: Strain oleΔ (yeast ole1 deletion mutant) was constructed by deleting OLE1 with NAT-MX6 in BY4741, amplifying the deletion cassette from the genomic DNA of the resulting strain with primers flanking the ORF by 1000 bp upstream and downstream, transforming the resulting deletion cassette into W303 pdr1Δ pdr3Δ, and plating transformants on YPD media containing G418 (200 μg/mL) and nourseothricin ([…]) with 0.01% TWEEN®-20 and 0.5 mM oleic and palmitoleic acids.
The coding sequence of yeast OLE1 was also cloned into this plasmid). These clones were then transformed into the ole1Δ strain and plated on CSM-Ura media (CSM lacking uracil) with 2% glucose (w/v) and independent colonies were isolated and amplified.
All compound profiling experiments were performed using the same basic protocol. Different genetic backgrounds (e.g., gene deletions) or conditions (e.g., addition of oleic and palmitoleic acid) were replaced as indicated below.
Yeast were cultured using standard techniques in complete synthetic media (CSM) and yeast nitrogen base supplemented with 2% (w/v) carbon source (glucose, raffinose, or galactose) to regulate the expression of the toxic disease protein. An initial starter culture was inoculated in 3 mL CSM-Glucose media and incubated overnight in a 30° C. shaker incubator (225 rpm). Saturated morning cultures were then diluted 1:20 in fresh CSM-Raffinose media and grown for 6 h to an OD600 (optical density) of ˜0.4-0.8 at 30° C. with shaking.
Compound administration was performed in two separate steps. First, 15 μL of CSM-Galactose (induces expression of toxic protein) was dispensed into clear 384 well assay plates using a MULTIDROP™ Combi reagent dispenser. […] The cultures described above were then diluted to a 2× concentration (0.03 and 0.08 for alpha-synuclein and ApoE, final ODsoo of 0.015 and 0.04) in CSM-Galactose. For wild-type and Ole1/SCD1/SCD5 plasmid-containing strains, the 2× cell density was 0.02. […] For 96-well assays (FIGS. 1A and 1B), compound dilutions in DMSO were generated in 96 well plates and 1 μL was manually pipetted into 96 well clear bottom assay plates.
For experiments using a plasmid-borne copy of Ole1, SCD1, or SCD5 (FIGS. 3B, 6, and 7), media lacking uracil (SX-Ura, where X is glucose, raffinose, or galactose), was used for all steps of the compound profiling protocol to ensure its maintenance throughout the assay.
After yeast delivery, assay plates were incubated under humidified conditions at 30° C. for 24 to 40 h. ApoE4 rescue experiments were stopped at 24 h, aSyn experiments at 40 h, Ole1 at 24 h, and SCD1/SCD5 at 40 h. The growth of yeast was monitored by reading the ODsoo of each well using a microplate reader (Perkin Elmer EnVision™).

| SMILES | IC50 (SCD5) [µM] | IC50 (SCD1) [µM] |
| --- | --- | --- |
| CNC(=O)O[C@H]1CC[C@H](c2nc(-c3ccc4c(C)nn(C)c4c3)no2)CC1 [Compound 609] | > 45 | > 45 |
| CC(C)N1C(=O)Cc2ccc(-c3noc(C4CCN(C(=O)OC5(C)CC5)CC4)n3)cc21 [Compound 610] | 2.16 | > 45 |
| CC(C)N1C(=O)Cc2ccc(-c3noc(C4CCN(C(=O)CC(C)(C)C)CC4)n3)cc21 [Compound 611] | 7.48 | > 45 |
| CC(C)N1C(=O)Cc2ccc(-c3noc(C4CCN(C(=O)c5ccccc5Cl)CC4)n3)cc21 [Compound 612] | 2.38 | > 45 |
| Cc1nn(C)c2cc(-c3noc(N4CCN(C(=O)OC5(C)CC5)CC4)n3)ccc12 [Compound 613] | > 45 | > 45 |
| CCOCC1CCN(c2nc(-c3ccc4cnn(C(C)C)c4c3)no2)CC1 [Compound 614] | 13.9 | > 45 |
| CC(C)n1ncc2ccc(-c3noc(C4CCN(Cc5ncco5)CC4)n3)cc21 [Compound 615] | 1.88 | 0.848 |
| CC(C)n1ncc2ccc(-c3noc(C4CCN(C(=O)C5CC(=O)N(C)C5(C)C)CC4)n3)cc21 (stereo not drawn) [Compound 616] | > 45 | > 45 |
| CC(C)(C)CC(=O)N1CCC(c2nc(-c3ccc4cnn(C5COC5)c4c3)no2)CC1 [Compound 617] | 0.121 | > 45 |
| O=C(OC1CC1)N1CCC(c2nc(-c3ccc4cnn(C5COC5)c4c3)no2)CC1 [Compound 618] | 0.101 | > 45 |
| CC(C)(C)CC(=O)N1CCN(c2nc(-c3ccc4cnn(C5COC5)c4c3)no2)CC1 [Compound 619] | 0.291 | > 45 |
| CC1(OC(=O)N2CCN(c3nc(-c4ccc5cnn(C6COC6)c5c4)no3)CC2)CC1 [Compound 620] | 0.013 | > 45 |
| CC(C)(C)OC(=O)N1CCC(c2nc(-c3ccc4cnn(C5COC5)c4c3)ns2)CC1 [Compound 621] | 0.042 | > 45 |
| COC(=O)N1CCC(F)(c2nc(-c3ccc4cnn(C(C)C)c4c3)no2)CC1 [Compound 622] | 1.61 | > 45 |
| CC(C)n1ncc2ccc(-c3noc(C4(F)CCN(C(=O)CC5(C)CC5)CC4)n3)cc21 [Compound 623] | 0.854 | > 45 |
| CC(C)n1ncc2ccc(-c3noc(C4(F)CCN(C(=O)OC5CC5)CC4)n3)cc21 [Compound 624] | 0.222 | > 45 |
| CC(C)n1ncc2ccc(-c3noc(C4(F)CCN(C(=O)OC5(C)CC5)CC4)n3)cc21 [Compound 625] | 0.122 | > 45 |
| CC(C)N1C(=O)Cc2ccc(-c3noc(C4CCN(C(=O)CC5(C)CC5)CC4)n3)cc21 [Compound 626] | 2.75 | > 45 |
| COC(=O)N1CCC(c2nc(-c3ccc4c(c3)N(C(C)C)C(=O)C4)no2)CC1 [Compound 627] | 6.69 | > 45 |
| CC(C)n1ncc2ccc(-c3nc(C4CCN(C(=O)OC5(C)CC5)CC4)no3)cc21 [Compound 628] | 0.01 | > 45 |
| COC(=O)N1CCC(c2noc(-c3ccc4cnn(C(C)C)c4c3)n2)CC1 [Compound 629] | 0.03 | > 45 |
| COC(=O)N1CCN(c2noc(-c3ccc4cnn(C(C)C)c4c3)n2)CC1 [Compound 630] | 0.014 | 10.2 |
| Cc1nn(C)c2cc(-c3noc(C4CCN(C(=O)[C@H]5CC(=O)N(c6cccc(C#N)c6)C5)CC4(F)F)n3)ccc12 (stereo partly drawn) [Compound 631] | > 45 | > 45 |

| SMILES | IC50 (SCD5) [µM] | IC50 (SCD1) [µM] |
| --- | --- | --- |
| CC(C)n1ncc2ccc(N3CC4(CCN(C(=O)CC(C)(C)C)CC4)C3)cc21 [Compound 632] | > 45 | > 45 |
| CC(C)(C)OC(=O)N1CC=C(c2nc(-c3ccc4cnn(C5COC5)c4c3)ns2)CC1 [Compound 633] | 0.214 | > 45 |
| CC(C)n1ncc2ccc(-c3noc([C@H]4CC[C@H](O)CC4)n3)cc21 [Compound 634] | ≥ 45 | > 45 |
| COC(=O)N1CCC(c2nc(-c3ccc4cnn(C5COC5)c4c3)no2)CC1 [Compound 635] | 0.397 | > 45 |
| COC(=O)N1CCN(c2nc(-c3ccc4cnn(C5COC5)c4c3)no2)CC1 [Compound 636] | 1.8 | > 45 |
| CC(C)n1ncc2ccc(-c3noc(N4CCC(CO)CC4)n3)cc21 [Compound 637] | > 45 | > 45 |
| CC(=O)N1CC(CC(=O)N2CCC(c3nc(-c4ccc5c(C)nn(C)c5c4)no3)CC2)C1 [Compound 638] | > 45 | > 45 |
| CC(C)c1noc2ccc(-c3noc(C4CCN(C(=O)OC(C)(C)C)CC4)n3)cc12 [Compound 639] | 4.79 | > 45 |
| CC(C1CC1)n1ncc2ccc(-c3noc(C4CCN(C(=O)OC(C)(C)C)CC4)n3)cc21 (stereo not drawn) [Compound 640] | 3.98 | > 45 |
| CC(CCO)n1ncc2ccc(-c3noc(C4CCN(C(=O)OC(C)(C)C)CC4)n3)cc21 (stereo not drawn) [Compound 641] | 6.72 | > 45 |
| O=C(OC1CC1)N1CCN(c2nc(-c3ccc4cnn(C5COC5)c4c3)no2)CC1 [Compound 642] | 0.211 | > 45 |
| CC(C)(C)OC(=O)N1CCC(c2noc(-c3ccc4cnn(C5COC5)c4c3)n2)CC1 [Compound 643] | 0.01 | > 45 |
| CNC(=O)Cn1ncc2ccc(-c3noc(C4CCN(C(=O)OC(C)(C)C)CC4)n3)cc21 [Compound 644] | > 45 | > 45 |
| CC(C)(C)OC(=O)N1CCC(c2nc(-c3ccc4cnn(CC5CCNC5=O)c4c3)no2)CC1 (stereo not drawn) [Compound 645] | 4.47 | 17.9 |
| COC(=O)N1CCC(c2nc(-c3ccc4onc(C(C)C)c4c3)no2)CC1 [Compound 646] | 1.18 | > 45 |
| CNC(=O)O[C@H]1CC[C@@H](c2nc(-c3ccc4cnn(C(C)C)c4c3)no2)CC1 [Compound 647] | 9.37 | > 45 |
| Cc1nn(C)c2cc(-c3noc(C4CCN(C(=O)[C@@H]5CC(=O)N(c6cccc(C#N)c6)C5)CC4(F)F)n3)ccc12 (stereo partly drawn) [Compound 648] | > 45 | > 45 |
| CC(C)(C)OC(=O)N1CCC(c2nc(-c3ccc4oc(=O)n(C5COC5)c4c3)no2)CC1 [Compound 649] | 0.259 | > 45 |
| CC(C)(C)OC(=O)N1CCC(c2nc(-c3ccc4cnn(C5CCOC5)c4c3)no2)CC1 (stereo not drawn) [Compound 650] | 0.013 | 4.36 |
| CCOC(=O)CC(C)n1ncc2ccc(-c3noc(C4CCN(C(=O)OC(C)(C)C)CC4)n3)cc21 (stereo not drawn) [Compound 651] | 18.4 | > 45 |
| CC(C)(C)OC(=O)N1CCC(c2nc(-c3ccc4cnn(C5CN(C(=O)OC(C)(C)C)C5)c4c3)no2)CC1 [Compound 652] | > 45 | > 45 |
| C=Cc1nn(C(C)C)c2cc(-c3noc(C4CCN(C(=O)OC(C)(C)C)CC4)n3)ccc12 [Compound 653] | > 45 | > 45 |
